Assay results: US12029748B2, “Synergistic composition for maintenance of healthy balance of microflora” (KIMBERLY-CLARK WORLDWIDE, INC., priority 2017, dated 2024)

System: L. crispatus and E. coli
Assay: Therapeutic Effect Protocol: L. crispatus / E. coli co-culture, ratio after 36 hours
Assay type: cell-based, Lactobacillus crispatus; E. coli
Settings: nitrogen compound 0.10 wt/vol % with 1.0 wt/vol % α methyl-D glucoside (10:1); 36 hours anaerobic co-culture, 37° C.
In short: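 L. crispatus and E. coli were mixed 1,000:1 (10^5-10^6 and 100-1,000 CFU per 5 mL tube) in LAPT-g medium at pH 6.5, containing 1% α-methyl-D-glucoside plus nitrogen compound at 0.1-1% w/v, in duplicate. After 36 h anaerobic incubation at 37 °C, each species was counted by selective plating (MRS anaerobic, TSA aerobic), and the L. crispatus:E. coli ratio and final pH were recorded.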

| SMILES | Therapeutic Efficacy Results (Lactobacillus/E. coli) 0.10% |
| --- | --- |
| O=c1cc[nH]c(=O)[nH]1 [Uracil] | 0.43 |
| CC(C)C[C@H](N)C(=O)O [L-Leucine] | 2.9 |
| Nc1ncnc2c1ncn2[C@@H]1O[C@H](CO)[C@@H](O)[C@H]1O [Adenosine] | <100 |
| N[C@@H](Cc1c[nH]c2ccccc12)C(=O)O [L-Tryptophan] | 0.66 |
| CC[C@H](C)[C@H](N)C(=O)O [L-Isoleucine] | 1.51 |
| NC(=O)C[C@H](N)C(=O)O [L-Asparagine] | 1.12 |
| N[C@@H](Cc1c[nH]cn1)C(=O)O [L-Histidine] | 1.11 |
| N[C@@H](Cc1ccccc1)C(=O)O [L-Phenylalanine] | 0.09 |
| NC(=O)NC1NC(=O)NC1=O (stereo not shown) [Allantoin] | 0.9 |

Same assay, conditions: nitrogen compound 0.50 wt/vol % with 1.0 wt/vol % α methyl-D glucoside (2:1); 36 hours anaerobic co-culture, 37° C.

| SMILES | Therapeutic Efficacy Results (Lactobacillus/E. coli) 0.50% |
| --- | --- |
| CC(C)C[C@H](N)C(=O)O [L-Leucine] | 0.24 |
| Nc1ncnc2c1ncn2[C@@H]1O[C@H](CO)[C@@H](O)[C@H]1O [Adenosine] | 0.97 |
| N[C@@H](Cc1c[nH]c2ccccc12)C(=O)O [L-Tryptophan] | 0.06 |
| NC(=O)C[C@H](N)C(=O)O [L-Asparagine] | 1.72 |
| NC(=O)NC1NC(=O)NC1=O (stereo not shown) [Allantoin] | 1.37 |

Same assay, conditions: with α methyl-D glucoside; ratio at least about 2:1, not 1:1

| SMILES | Therapeutic effect when ratio α methyl-D glucoside : nitrogen compound is at least about 2:1, but not at 1:1 |
| --- | --- |
| CC(C)C[C@H](N)C(=O)O [L-Leucine] | provided a therapeutic effect |
| Nc1ncnc2c1ncn2[C@@H]1O[C@H](CO)[C@@H](O)[C@H]1O [Adenosine] | provided a therapeutic effect |

System: not listed separately
Assay: Solubility screening of the composition (visual precipitates or turbidity)
Assay type: physicochemical
Settings: nitrogen compound 0.10 wt/vol % with 1.0 wt/vol % α methyl-D glucoside in medium
From the text: Each composition in Table 1 went through initial screening measures of solubility and initial pH (“I pH”). […] When a specific concentration of a nitrogen containing compound was insoluble, the initial and final pH (“F pH”) of the combined composition was not measured and accordingly are each marked as “NM.” Additionally, initial pH of the composition was checked as a screening measure. The initial pH was marked as either Low (“L”), High (“H”), or Pass (“P”). A Low initial pH corresponds to an initial pH being less than 5.5, a High initial pH corresponds to an initial pH being greater than 6.5, and a Pass initial pH corresponds to the pH being at or between 5.5-6.5. […] As part of the Therapeutic Effect Protocol, a final pH was also measured after the compositions that were tested against the Lactobacillus and E. coli.
All of the ingredients in Table 2 were combined and the pH was adjusted to 6.5. […] To evaluate the effect of various nitrogen containing therapeutic agents on the growth of bacteria, the LAPT-g media, prepared as described above, was supplemented with various nitrogen containing compound therapeutic agents to a final test concentration between 0.1 and 1.0%. As initial screening measures, solubility and initial pH of each composition were checked. If a specific composition was insoluble (as detected by visual indication of precipitates or turbidity), then no further therapeutic efficacy testing was undertaken on that composition. Additionally, if the initial pH of the composition was below 5.5 (“Low”) or was above 6.5 (“High”), then no further therapeutic efficacy testing was undertaken on that composition.

| Solubility of the composition, 0.10% | SMILES |
| --- | --- |
| Insol. | Nc1ncnc2nc[nH]c12 [Adenine] |

Same assay, conditions: nitrogen compound 0.50 wt/vol % with 1.0 wt/vol % α methyl-D glucoside in medium

| Solubility of the composition, 0.50% | SMILES |
| --- | --- |
| Insol. | O=c1cc[nH]c(=O)[nH]1 [Uracil] |
| Insol. | CC[C@H](C)[C@H](N)C(=O)O [L-Isoleucine] |
| Insol. | N[C@@H](Cc1c[nH]cn1)C(=O)O [L-Histidine] |
| Insol. | Nc1ncnc2nc[nH]c12 [Adenine] |
| Insol. | N[C@@H](Cc1ccccc1)C(=O)O [L-Phenylalanine] |

Same assay, conditions: nitrogen compound 1.00 wt/vol % with 1.0 wt/vol % α methyl-D glucoside in medium

| Solubility of the composition, 1.00% | SMILES |
| --- | --- |
| Insol. | O=c1cc[nH]c(=O)[nH]1 [Uracil] |
| Insol. | CC(C)C[C@H](N)C(=O)O [L-Leucine] |
| Insol. | Nc1ncnc2c1ncn2[C@@H]1O[C@H](CO)[C@@H](O)[C@H]1O [Adenosine] |
| Insol. | CC[C@H](C)[C@H](N)C(=O)O [L-Isoleucine] |
| Insol. | NC(=O)C[C@H](N)C(=O)O [L-Asparagine] |
| Insol. | N[C@@H](Cc1c[nH]cn1)C(=O)O [L-Histidine] |
| Insol. | Nc1ncnc2nc[nH]c12 [Adenine] |
| Insol. | N[C@@H](Cc1ccccc1)C(=O)O [L-Phenylalanine] |
| Insol. | NC(=O)NC1NC(=O)NC1=O (stereo not shown) [Allantoin] |

| SMILES | Solubility of the composition, 1.00% |
| --- | --- |
| N[C@@H](Cc1c[nH]c2ccccc12)C(=O)O [L-Tryptophan] | Insol. |

System: not listed separately
Assay: Initial pH screening of the composition
Assay type: physicochemical
Settings: nitrogen compound 0.10 wt/vol % with 1.0 wt/vol % α methyl-D glucoside in medium
In short: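 Compounds were added to LAPT-g medium (pH adjusted to 6.5) at a final 0.1-1.0%. Solubility was judged visually by precipitate or turbidity, and insoluble compositions got no pH measurement. Initial pH was scored Low (<5.5), High (>6.5) or Pass (5.5-6.5), and only soluble Pass compositions went on to efficacy testing.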

| SMILES | I pH (initial pH), 0.10% |
| --- | --- |
| O=c1cc[nH]c(=O)[nH]1 [Uracil] | P (a Pass initial pH corresponds to the pH being at or between 5.5-6.5) |
| CC(C)C[C@H](N)C(=O)O [L-Leucine] | P (a Pass initial pH corresponds to the pH being at or between 5.5-6.5) |
| Nc1ncnc2c1ncn2[C@@H]1O[C@H](CO)[C@@H](O)[C@H]1O [Adenosine] | P (a Pass initial pH corresponds to the pH being at or between 5.5-6.5) |
| N[C@@H](Cc1c[nH]c2ccccc12)C(=O)O [L-Tryptophan] | P (a Pass initial pH corresponds to the pH being at or between 5.5-6.5) |
| CC[C@H](C)[C@H](N)C(=O)O [L-Isoleucine] | P (a Pass initial pH corresponds to the pH being at or between 5.5-6.5) |
| NC(=O)C[C@H](N)C(=O)O [L-Asparagine] | P (a Pass initial pH corresponds to the pH being at or between 5.5-6.5) |
| N[C@@H](Cc1c[nH]cn1)C(=O)O [L-Histidine] | P (a Pass initial pH corresponds to the pH being at or between 5.5-6.5) |
| N[C@@H](Cc1ccccc1)C(=O)O [L-Phenylalanine] | P (a Pass initial pH corresponds to the pH being at or between 5.5-6.5) |
| NC(=O)NC1NC(=O)NC1=O (stereo not shown) [Allantoin] | P (a Pass initial pH corresponds to the pH being at or between 5.5-6.5) |

Same assay, conditions: nitrogen compound 0.50 wt/vol % with 1.0 wt/vol % α methyl-D glucoside in medium

| SMILES | I pH (initial pH), 0.50% |
| --- | --- |
| CC(C)C[C@H](N)C(=O)O [L-Leucine] | P (a Pass initial pH corresponds to the pH being at or between 5.5-6.5) |
| Nc1ncnc2c1ncn2[C@@H]1O[C@H](CO)[C@@H](O)[C@H]1O [Adenosine] | P (a Pass initial pH corresponds to the pH being at or between 5.5-6.5) |
| N[C@@H](Cc1c[nH]c2ccccc12)C(=O)O [L-Tryptophan] | P (a Pass initial pH corresponds to the pH being at or between 5.5-6.5) |
| NC(=O)C[C@H](N)C(=O)O [L-Asparagine] | P (a Pass initial pH corresponds to the pH being at or between 5.5-6.5) |
| NC(=O)NC1NC(=O)NC1=O (stereo not shown) [Allantoin] | P (a Pass initial pH corresponds to the pH being at or between 5.5-6.5) |
